ChEMBL document CHEMBL1123971, “Synthesis, platelet aggregation inhibitory activity, and in vivo antithrombotic activity of new 1,4-dihydropyridines” (J Med Chem, 1988)
“And” between values parts separate entries of the source, which are not always exact repeats. Equal values may be shown once.

What was measured:
[1] = system: Felis catus; test: Effect of intraperitoneal infusion on systolic pressure in Anesthetized cats at a dose of 200 mg/kg at 30 min; format: functional
[2] = organism: Cavia porcellus; test: Chronotropic activity on left and right guinea pig artia (beats/min), at 60 min; format: functional
[3] = system: Felis catus; test: Effect of intravenous infusion on cardiac frequency in Anesthetized cats at a dose of 0.15 mg/kg at 1 min; format: functional, Heart
[4] = system: Felis catus; test: Effect of intraperitoneal infusion on respiration frequency in Anesthetized cats at a dose of 200 mg/kg at 30 min; format: functional
[5] = system: Felis catus; test: Effect of intraperitoneal infusion on respiration frequency in Anesthetized cats at a dose of 200 mg/kg at 165 min; format: functional
[6] = system: Felis catus; test: Effect of intravenous infusion on diastolic pressure in Anesthetized cats at a dose of 0 mg/kg at 0 min; format: functional
[7] = system: Felis catus; test: Effect of intraperitoneal infusion on respiration frequency in Anesthetized cats at a dose of 200 mg/kg at 150 min; format: functional
[8] = organism: Cavia porcellus; test: Chronotropic activity on left and right guinea pig artia (beats/min), at 15 min; format: functional
[9] = system: Felis catus; test: Effect of intraperitoneal infusion on respiration frequency in Anesthetized cats at a dose of 200 mg/kg at 90 min; format: functional
[10] = organism: Mus musculus; test: Dose required to protect 50% of tested mice against experimental antithrombosis.; format: functional
[11] = system: Felis catus; test: Effect of intraperitoneal infusion on systolic pressure in Anesthetized cats at a dose of 200 mg/kg at 45 min; format: functional
[12] = system: Felis catus; test: Effect of intravenous infusion on systolic pressure in Anesthetized cats at a dose of 2.25 mg/kg at 15 min; format: functional
[13] = system: Felis catus; test: Effect of intravenous infusion on respiration frequency in Anesthetized cats at a dose of 1.50 mg/kg at 10 min; format: functional; details: dose 1.5 mg/kg
[14] = system: Felis catus; test: Effect of intraperitoneal infusion on diastolic pressure in Anesthetized cats at a dose of 200 mg/kg at 150 min; format: functional
[15] = system: Felis catus; test: Effect of intraperitoneal infusion on systolic pressure in Anesthetized cats at a dose of 200 mg/kg at 180 min; format: functional
[16] = system: Felis catus; test: Effect of intraperitoneal infusion on diastolic pressure in Anesthetized cats at a dose of 200 mg/kg at 45 min; format: functional
[17] = system: Felis catus; test: Effect of intraperitoneal infusion of compound on cardiac frequency in Anesthetized cats at a dose of 200 mg/kg at 150 min; format: functional, Heart
[18] = organism: Cavia porcellus; test: Chronotropic activity on left and right guinea pig artia (beats/min), at 75 min; format: functional
[19] = system: Felis catus; test: Effect of intraperitoneal infusion on diastolic pressure in Anesthetized cats at a dose of 200 mg/kg at 75 min; format: functional
[20] = system: Felis catus; test: Effect of intraperitoneal infusion of compound on cardiac frequency in Anesthetized cats at a dose of 200 mg/kg at 120 min; format: functional, Heart
[21] = system: Felis catus; test: Effect of intravenous infusion on diastolic pressure in Anesthetized cats at a dose of 0.75 mg/kg at 5 min; format: functional
[22] = system: Felis catus; test: Effect of intravenous infusion on diastolic pressure in Anesthetized cats at a dose of 3.0 mg/kg at 20 min; format: functional
[23] = organism: Oryctolagus cuniculus; test: Effect on 35 mM K+-induced contraction on rabbit aorta at a dose of 10E-8 mol/L; format: functional
[24] = system: Felis catus; test: Effect of intraperitoneal infusion on systolic pressure in Anesthetized cats at a dose of 200 mg/kg at 150 min; format: functional
[25] = system: Felis catus; test: Effect of intraperitoneal infusion on respiration frequency in Anesthetized cats at a dose of 200 mg/kg at 0 min; format: functional
[26] = system: Felis catus; test: Effect of intraperitoneal infusion on respiration frequency in Anesthetized cats at a dose of 200 mg/kg at 45 min; format: functional
[27] = system: Felis catus; test: Effect of intraperitoneal infusion on respiration frequency in Anesthetized cats at a dose of 200 mg/kg at 75 min; format: functional
[28] = system: Felis catus; test: Effect of intraperitoneal infusion on diastolic pressure in Anesthetized cats at a dose of 200 mg/kg at 165 min; format: functional
[29] = organism: Cavia porcellus; test: Effect on guinea pig artia (beats/min), at the a dose of 10e-8 M; format: functional
[30] = organism: Cavia porcellus; test: Chronotropic activity on left and right guinea pig artia (beats/min), at 30 min; format: functional
[31] = system: Felis catus; test: Effect of intravenous infusion on diastolic pressure in Anesthetized cats at a dose of 0.15 mg/kg at 1 min; format: functional
[32] = system: Felis catus; test: Effect of intraperitoneal infusion on diastolic pressure in Anesthetized cats at a dose of 200 mg/kg at 15 min; format: functional
[33] = organism: Cavia porcellus; test: Effect on guinea pig artia (beats/min), at the a dose of 10e-7 M; format: functional
[34] = system: Felis catus; test: Effect of intraperitoneal infusion on respiration frequency in Anesthetized cats at a dose of 200 mg/kg at 18 0 min; format: functional
[35] = system: Felis catus; test: Effect of intraperitoneal infusion on systolic pressure in Anesthetized cats at a dose of 200 mg/kg at 135 min; format: functional
[36] = system: Felis catus; test: Effect of intraperitoneal infusion of compound on cardiac frequency in Anesthetized cats at a dose of 200 mg/kg at 45 min; format: functional, Heart
[37] = organism: Oryctolagus cuniculus; test: Effect on 35 mM K+-induced contraction on rabbit aorta at a dose of 3*10e-9 mol/L; format: functional
[38] = system: Felis catus; test: Effect of intraperitoneal infusion on diastolic pressure in Anesthetized cats at a dose of 200 mg/kg at 60 min; format: functional
[39] = system: Felis catus; test: Effect of intraperitoneal infusion on systolic pressure in Anesthetized cats at a dose of 200 mg/kg at 105 min; format: functional
[40] = system: Felis catus; test: Effect of intravenous infusion on respiration frequency in Anesthetized cats at a dose of 3 mg/kg at 20 min; format: functional
[41] = system: Felis catus; test: Effect of intraperitoneal infusion on systolic pressure in Anesthetized cats at a dose of 200 mg/kg at 75 min; format: functional
[42] = system: Felis catus; test: Effect of intravenous infusion on diastolic pressure in Anesthetized cats at a dose of 0.30 mg/kg at 2 min; format: functional; details: dose 0.3 mg/kg
[43] = system: Felis catus; test: Effect of intraperitoneal infusion of compound on cardiac frequency in Anesthetized cats at a dose of 200 mg/kg at 0 min; format: functional, Heart
[44] = organism: Cavia porcellus; test: Chronotropic activity on left and right guinea pig artia (beats/min), at 0 min; format: functional
[45] = system: Felis catus; test: Effect of intraperitoneal infusion of compound on cardiac frequency in Anesthetized cats at a dose of 200 mg/kg at 75 min; format: functional, Heart
[46] = system: Felis catus; test: Effect of intraperitoneal infusion of compound on cardiac frequency in Anesthetized cats at a dose of 200 mg/kg at 135 min; format: functional, Heart
[47] = system: Felis catus; test: Effect of intravenous infusion on diastolic pressure in Anesthetized cats at a dose of 2.25 mg/kg at 15 min; format: functional
[48] = system: Felis catus; test: Effect of intraperitoneal infusion on systolic pressure in Anesthetized cats at a dose of 200 mg/kg at 15 min; format: functional

CCO/C(O)=C1\C(C)=NC(C)=C(C(=O)OCCN2C(=O)c3ccccc3S2(=O)=O)C1C (stereo not given)
Arterial pressure [1]: 135 mmHg
Beats/min [2]: 136
Control [2]: 99.3%
Cardiac frequency [3]: 190 beats min-1
Respiratory frequency [4]: 13 r.p.m.
Respiratory frequency [5]: 15 r.p.m.
Arterial pressure [6]: 115 mmHg
Respiratory frequency [7]: 15 r.p.m.
Beats/min [8]: 138
Control [8]: 100.7%
Respiratory frequency [9]: 12 r.p.m.
ED50 [10]: 2.23 µmol/kg and 1 mg/kg
Arterial pressure [11]: 125 mmHg
Arterial pressure [12]: 162 mmHg
Respiratory frequency [13]: 18 r.p.m.
Arterial pressure [14]: 80 mmHg
Arterial pressure [15]: 145 mmHg
Arterial pressure [16]: 85 mmHg
Cardiac frequency [17]: 265 beats min-1
Beats/min [18]: 134
Control [18]: 97.8%
Arterial pressure [19]: 90 mmHg
Cardiac frequency [20]: 261 beats min-1
Arterial pressure [21]: 112 mmHg
Arterial pressure [22]: 160 mmHg
Inhibition [23]: 0%
Arterial pressure [24]: 140 mmHg
Respiratory frequency [25]: 14 r.p.m.
Respiratory frequency [26]: 14 r.p.m.
Respiratory frequency [27]: 12 r.p.m.
Arterial pressure [28]: 80 mmHg
Beats/min [29]: 176
Control [29]: 96.3%
Beats/min [30]: 138
Control [30]: 100.7%
Arterial pressure [31]: 115 mmHg
Arterial pressure [32]: 90 mmHg
Beats/min [33]: 181
Control [33]: 98.6%
Respiratory frequency [34]: 15 r.p.m.
Arterial pressure [35]: 140 mmHg
Cardiac frequency [36]: 245 beats min-1
Inhibition [37]: 0%
Arterial pressure [38]: 85 mmHg
Arterial pressure [39]: 140 mmHg
Respiratory frequency [40]: 18 r.p.m.
Arterial pressure [41]: 137 mmHg
Arterial pressure [42]: 115 mmHg
Cardiac frequency [43]: 260 beats min-1
Beats/min [44]: 137
Control [44]: 100%
Cardiac frequency [45]: 255 beats min-1
Cardiac frequency [46]: 271 beats min-1
Arterial pressure [47]: 110 mmHg
Arterial pressure [48]: 130 mmHg
